Patent US20250051356A1, “RIFABUTIN ANALOGS FOR THE TREATMENT OF DISEASE” (priority 2021, published 2025)
In brackets after ≈: the same amount, converted by molar mass. Like-named read-outs stand apart in the source and are kept apart here.

How the values were obtained:
Format in all cases: cell-based
[1] = tested on: S. aureus (UAMS-1625 strain); assay: MIC by broth microdilution against S. aureus; settings: Staphylococcus aureus, read-out: MIC S. aureus
[2] = tested on: A. baumannii (HUMC1 strain); assay: MIC by broth microdilution against A. baumannii in RPMI + 10% FCS; settings: Acinetobacter baumannii, read-out: MIC A. baumannii
[3] = tested on: M. abscessus subsp. abscessus ATCC 19977; assay: MIC against M. abscessus in Middlebrook 7H9 + ADC; settings: Mycobacteroides abscessus
[4] = ATCC19977, ATCC 19977, 7H9 + ADC, read-out: MIC M. abscessus
[5] = ATCC19977, read-out: MIC M. abscessus

SMILES	MIC [1] [µg/mL]	MIC ([2]; HUMC1 strain, RPMI + 10% FCS) [µg/mL]	MIC [3, 4] [µg/mL]	MIC [2] [µg/mL]	MIC [3, 5] [µg/mL]
CO[C@H]1/C=C/O[C@@]2(C)Oc3c(C)c(O)c4c(c3C2=O)C2=NC3(CCN(CC(C)C)CC3)NC2=C(NC(=O)/C(C)=C\C=C\[C@H](C)[C@H](O)[C@@H](C)[C@@H](O)[C@@H](C)[C@H](OC(=O)C(C)C(=O)N2CCN(c3ccccc3S(N)(=O)=O)CC2)[C@@H]1C)C4=O (stereo partly drawn) [Compound 38]	0.25 (≈ 0.222 µM)	0.008	0.5		
CO[C@H]1/C=C/O[C@@]2(C)Oc3c(C)c(O)c4c(c3C2=O)C2=NC3(CCN(CC(C)C)CC3)NC2=C(NC(=O)/C(C)=C\C=C\[C@H](C)[C@H](O)[C@@H](C)[C@@H](O)[C@@H](C)[C@H](OC(=O)C(C)C(=O)N2CCC(Nc3ccccc3)CC2)[C@@H]1C)C4=O (stereo partly drawn) [Compound 41]	0.5 (≈ 0.47 µM)			0.016	0.5
CO[C@H]1/C=C/O[C@@]2(C)Oc3c(C)c(O)c4c(c3C2=O)C2=NC3(CCN(CC(C)C)CC3)NC2=C(NC(=O)/C(C)=C\C=C\[C@H](C)[C@H](O)[C@@H](C)[C@@H](O)[C@@H](C)[C@H](OC(=O)C(C)C(=O)N2CCC(n3c(=O)[nH]c5ccccc53)CC2)[C@@H]1C)C4=O (stereo partly drawn) [Compound 42]	0.5 (≈ 0.453 µM)	0.03	0.5		
CO[C@H]1/C=C/O[C@@]2(C)Oc3c(C)c(O)c4c(c3C2=O)C2=NC3(CCN(CC(C)C)CC3)NC2=C(NC(=O)/C(C)=C\C=C\[C@H](C)[C@H](O)[C@@H](C)[C@@H](O)[C@@H](C)[C@H](OC(=O)C(C)C(=O)N2CCc3[nH]c5ccccc5c3C2)[C@@H]1C)C4=O (stereo partly drawn) [Compound 43]	0.5 (≈ 0.472 µM)	0.06	0.5		
CO[C@H]1/C=C/O[C@@]2(C)Oc3c(C)c(O)c4c(c3C2=O)C2=NC3(CCN(CC(C)C)CC3)NC2=C(NC(=O)/C(C)=C\C=C\[C@H](C)[C@H](O)[C@@H](C)[C@@H](O)[C@@H](C)[C@H](OC(=O)CC(=O)OC2CCN(C)CC2)[C@@H]1C)C4=O [Compound 45]	0.06 (≈ 0.0607 µM)	0.004	0.5		
CO[C@H]1/C=C/O[C@@]2(C)Oc3c(C)c(O)c4c(c3C2=O)C2=NC3(CCN(CC(C)C)CC3)NC2=C(NC(=O)/C(C)=C\C=C\[C@H](C)[C@H](O)[C@@H](C)[C@@H](O)[C@@H](C)[C@H](OC(=O)CC(=O)N2CCC(n3c(=O)[nH]c5ccccc53)CC2)[C@@H]1C)C4=O [Compound 46]	0.25 (≈ 0.229 µM)	0.03	0.5		
CO[C@H]1/C=C/O[C@@]2(C)Oc3c(C)c(O)c4c(c3C2=O)C2=NC3(CCN(CC(C)C)CC3)NC2=C(NC(=O)/C(C)=C\C=C\[C@H](C)[C@H](O)[C@@H](C)[C@@H](O)[C@@H](C)[C@H](OC(=O)CC(=O)N2CCC(n3c(=O)[nH]c5cc(Cl)ccc53)CC2)[C@@H]1C)C4=O [Compound 47]	1 (≈ 0.889 µM)	0.125	0.5		
CO[C@H]1/C=C/O[C@@]2(C)Oc3c(C)c(O)c4c(c3C2=O)C2=NC3(CCN(CC(C)C)CC3)NC2=C(NC(=O)/C(C)=C\C=C\[C@H](C)[C@H](O)[C@@H](C)[C@@H](O)[C@@H](C)[C@H](OC(=O)CC(=O)N2CCC3(CC2)C(=O)NCN3c2ccccc2)[C@@H]1C)C4=O [Compound 48]	0.25 (≈ 0.226 µM)	0.03	0.5		
COc1cc(CC2CCN(C(=O)CC(=O)O[C@H]3[C@H](C)[C@H](O)[C@H](C)[C@@H](O)[C@@H](C)/C=C/C=C(/C)C(=O)NC4=C5NC6(CCN(CC(C)C)CC6)N=C5c5c(c(O)c(C)c6c5C(=O)[C@@](C)(O/C=C/[C@H](OC)[C@H]3C)O6)C4=O)CC2)cc(C(F)(F)F)c1 [Compound 51]	2 (≈ 1.74 µM)	0.06	1		
CO[C@H]1/C=C/O[C@@]2(C)Oc3c(C)c(O)c4c(c3C2=O)C2=NC3(CCN(CC(C)C)CC3)NC2=C(NC(=O)/C(C)=C\C=C\[C@H](C)[C@H](O)[C@@H](C)[C@@H](O)[C@@H](C)[C@H](OC(=O)CC(=O)N2CCC([C@@H](O)c3nccn3C)CC2)[C@@H]1C)C4=O [Compound 53]	0.125 (≈ 0.117 µM)	≤ 0.002	1		
CO[C@H]1/C=C/O[C@@]2(C)Oc3c(C)c(O)c4c(c3C2=O)C2=NC3(CCN(CC(C)C)CC3)NC2=C(NC(=O)/C(C)=C\C=C\[C@H](C)[C@H](O)[C@@H](C)[C@@H](O)[C@@H](C)[C@H](OC(=O)CC(=O)N2CCC(N3CCCCC3)CC2)[C@@H]1C)C4=O [Compound 58]	0.03 (≈ 0.0288 µM)	≤ 0.002	1		
CO[C@H]1/C=C/O[C@@]2(C)Oc3c(C)c(O)c4c(c3C2=O)C2=NC3(CCN(CC(C)C)CC3)NC2=C(NC(=O)/C(C)=C\C=C\[C@H](C)[C@H](O)[C@@H](C)[C@@H](O)[C@@H](C)[C@H](OC(=O)CC(=O)N2CCC(NC(=O)OC(C)(C)C)CC2)[C@@H]1C)C4=O [Compound 59]	0.125 (≈ 0.116 µM)	0.008	0.5		
CO[C@H]1/C=C/O[C@@]2(C)Oc3c(C)c(O)c4c(c3C2=O)C2=NC3(CCN(CC(C)C)CC3)NC2=C(NC(=O)/C(C)=C\C=C\[C@H](C)[C@H](O)[C@@H](C)[C@@H](O)[C@@H](C)[C@H](OC(=O)CC(=O)N2CCC(n3cccn3)CC2)[C@@H]1C)C4=O [Compound 60]	0.03 (≈ 0.0293 µM)	≤ 0.002	0.5		
CO[C@H]1/C=C/O[C@@]2(C)Oc3c(C)c(O)c4c(c3C2=O)C2=NC3(CCN(CC(C)C)CC3)NC2=C(NC(=O)/C(C)=C\C=C\[C@H](C)[C@H](O)[C@@H](C)[C@@H](O)[C@@H](C)[C@H](OC(=O)CC(=O)N2CCC(NS(=O)(=O)c3ccccc3)CC2)[C@@H]1C)C4=O [Compound 61]	0.125 (≈ 0.112 µM)			0.008	0.5
CO[C@H]1/C=C/O[C@@]2(C)Oc3c(C)c(O)c4c(c3C2=O)C2=NC3(CCN(CC(C)C)CC3)NC2=C(NC(=O)/C(C)=C\C=C\[C@H](C)[C@H](O)[C@@H](C)[C@@H](O)[C@@H](C)[C@H](OC(=O)CC(=O)N2CCC(N3CCn5ccnc5C3)CC2)[C@@H]1C)C4=O [Compound 62]	0.06 (≈ 0.0556 µM)	≤ 0.002	1		
CO[C@H]1/C=C/O[C@@]2(C)Oc3c(C)c(O)c4c(c3C2=O)C2=NC3(CCN(CC(C)C)CC3)NC2=C(NC(=O)/C(C)=C\C=C\[C@H](C)[C@H](O)[C@@H](C)[C@@H](O)[C@@H](C)[C@H](OC(=O)CC(=O)N2CC(Nc3ccc(F)cc3)C2)[C@@H]1C)C4=O [Compound 63]	0.25 (≈ 0.241 µM)	0.016	0.5		
CO[C@H]1/C=C/O[C@@]2(C)Oc3c(C)c(O)c4c(c3C2=O)C2=NC3(CCN(CC(C)C)CC3)NC2=C(NC(=O)/C(C)=C\C=C\[C@H](C)[C@H](O)[C@@H](C)[C@@H](O)[C@@H](C)[C@H](OC(=O)CC(=O)N2CC(n3ccnn3)C2)[C@@H]1C)C4=O [Compound 64]	0.06 (≈ 0.0602 µM)	≤ 0.002	1		
CO[C@H]1/C=C/O[C@@]2(C)Oc3c(C)c(O)c4c(c3C2=O)C2=NC3(CCN(CC(C)C)CC3)NC2=C(NC(=O)/C(C)=C\C=C\[C@H](C)[C@H](O)[C@@H](C)[C@@H](O)[C@@H](C)[C@H](OC(=O)CC(=O)N2CCc3[nH]c5ccccc5c3C2)[C@@H]1C)C4=O [Compound 65]	0.125 (≈ 0.12 µM)	0.016	0.5		
CO[C@H]1/C=C/O[C@@]2(C)Oc3c(C)c(O)c4c(c3C2=O)C2=NC3(CCN(CC(C)C)CC3)NC2=C(NC(=O)/C(C)=C\C=C\[C@H](C)[C@H](O)[C@@H](C)[C@@H](O)[C@@H](C)[C@H](OC(=O)CCC(=O)NCCN(C)C)[C@@H]1C)C4=O [Compound 72]	0.06 (≈ 0.0615 µM)	≤ 0.002	1		
CO[C@H]1/C=C/O[C@@]2(C)Oc3c(C)c(O)c4c(c3C2=O)C2=NC3(CCN(CC(C)C)CC3)NC2=C(NC(=O)/C(C)=C\C=C\[C@H](C)[C@H](O)[C@@H](C)[C@@H](O)[C@@H](C)[C@H](OC(=O)CCC(=O)OCC2CCCN(C)C2)[C@@H]1C)C4=O (stereo partly drawn) [Compound 73]	0.06 (≈ 0.059 µM)	≤ 0.002	1		
CO[C@H]1/C=C/O[C@@]2(C)Oc3c(C)c(O)c4c(c3C2=O)C2=NC3(CCN(CC(C)C)CC3)NC2=C(NC(=O)/C(C)=C\C=C\[C@H](C)[C@H](O)[C@@H](C)[C@@H](O)[C@@H](C)[C@H](OC(=O)CCCC(=O)OCC2CCCN(C)C2)[C@@H]1C)C4=O (stereo partly drawn) [Compound 74]	0.06 (≈ 0.0582 µM)	≤ 0.002	1		
CO[C@H]1/C=C/O[C@@]2(C)Oc3c(C)c(O)c4c(c3C2=O)C2=NC3(CCN(CC(C)C)CC3)NC2=C(NC(=O)/C(C)=C\C=C\[C@H](C)[C@H](O)[C@@H](C)[C@@H](O)[C@@H](C)[C@H](OC(=O)CCCC(=O)OC2CCN(C)C2)[C@@H]1C)C4=O (stereo partly drawn) [Compound 77]	0.06 (≈ 0.0599 µM)	≤ 0.002	0.5		
CO[C@H]1/C=C/OC2(C)Oc3c(C)c(O)c4c(c3C2=O)C2=NC3(CCN(CC(C)C)CC3)NC2=C(NC(=O)/C(C)=C\C=C\[C@H](C)[C@H](O)[C@@H](C)[C@@H](O)[C@@H](C)[C@H](OC(=O)CC(=O)N2CCn3c2nc2ccccc23)[C@@H]1C)C4=O (stereo partly drawn) [Compound 89]	0.125 (≈ 0.121 µM)	0.016	0.5		
CO[C@H]1/C=C/O[C@@]2(C)Oc3c(C)c(O)c4c(c3C2=O)C2=NC3(CCN(CC(C)C)CC3)NC2=C(NC(=O)/C(C)=C\C=C\[C@H](C)[C@H](O)[C@@H](C)[C@@H](O)[C@@H](C)[C@H](OC(=O)CC(=O)N2CCN(C3CN(C)C3)CC2)[C@@H]1C)C4=O [Compound 111]	0.125 (≈ 0.122 µM)	0.06	0.5		
CO[C@H]1/C=C/O[C@@]2(C)Oc3c(C)c(O)c4c(c3C2=O)C2=NC3(CCN(CC(C)C)CC3)NC2=C(NC(=O)/C(C)=C\C=C\[C@H](C)[C@H](O)[C@@H](C)[C@@H](O)[C@@H](C)[C@H](OC(=O)CC(=O)N2CCN(C3CCN(C)CC3)CC2)[C@@H]1C)C4=O [Compound 112]	0.125 (≈ 0.118 µM)	0.004	1		
CO[C@H]1/C=C/O[C@@]2(C)Oc3c(C)c(O)c4c(c3C2=O)C2=NC3(CCN(CC(C)C)CC3)NC2=C(NC(=O)/C(C)=C\C=C\[C@H](C)[C@H](O)[C@@H](C)[C@@H](O)[C@@H](C)[C@H](OC(=O)CC(=O)N2CCN(CCN(C)C)CC2)[C@@H]1C)C4=O [Compound 113]	0.06 (≈ 0.0582 µM)	0.06	0.5		
